# Results as given in patent publication US20050113318A1, “Combination of dehydroepiandrosterone or dehydroepiandrosterone-sulfate with a beta-agonist bronchodilator for treatment of asthma or chronic obstructive pulmonary disease” (priority 2003, published 2005).
# How the values were obtained:
# tissue adenosine = test: In vivo effect on adenosine levels in various rat tissues; design: species or system Fischer 344 rats
# Procedure: Folinic acid (50 mg/kg) was administered intraperitoneally once daily for fourteen days. […] Hearts were removed from animals and flash frozen in liquid nitrogen with 10 s of death. Liver and lungs were removed en bloc and flash frozen with 30 s of death. Brain tissue was subsequently dissected.
# HT-29 SF cells [1] = test: Reversal of DHEA-mediated growth inhibition; assay type: cell-based, human; conditions: 25 μM DHEA, 48 hours; 2 μM MVA, 80 μM SQ, 15 μg/ml CH, RN 30 μM each, DN 20 μM each
# [2] = Solubility of DHEA-S dihydrate and nebulizer solution properties; assay type: physicochemical; conditions: for solubility: range of triplicates
# Excerpt: Inhalation of pure water can produce a cough stimulus. […] The temperature effect is weaker at high NaCl concentrations.
# [3] = Short-term solution stability of DHEA-S in 0.12% NaCl; assay type: physicochemical; conditions: for appearance / decomposition on storage: 10 mg/mL in 0.12% NaCl
# Procedure: Aliquots of this solution are filled into clear glass vials and stored at RT (24-26° C.) and at 40° C. The samples are checked daily for DHEA-S content, DHEA content, and appearance. For each time point, duplicate samples are withdrawn and diluted from each vial. […] The study is stopped on day three. […] The solution should easily be stable for the day of reconstitution in a clinical trial. The following section describes the aerosol properties of this formulation.
# HT-29 SF cells [4] = test: DHEA effect on cell growth (Coulter counter); assay type: cell-based, human; conditions: 12.5-200 μM, 24-72 hours, FIG. 14
# HT-29 SF cells [5] = test: DHEA effect on cell cycle distribution (flow cytometry); assay type: cell-based, human
# Procedure: Cells were plated at 10^5/60-mm dish in duplicate. […] Cultures were trypsinized following […] and fixed and stained using a modification of a procedure of Bauer et al., Cancer Res. 46, 3173-3178 (1986). Briefly, cells were collected by centrifugation and resuspended in cold phosphate-buffered saline. Cells were fixed in 70% ethanol, washed, and resuspended in phosphate-buffered saline.
# After 24, 48, and 72 hours, cells were harvested, fixed in ethanol, and stained with propidium iodide, and the DNA content/cell was determined by flow cytometric analysis. The percentage of cells in G1, S, and G2M phases was calculated using the Cellfit cell cycle analysis program. S phase is marked by a quadrangle for clarity. Representative histograms from duplicate determinations are shown. The experiment was repeated three times.
# HT-29 SF cells [6] = test: Reversal of DHEA effect on cell cycle; assay type: cell-based, human; conditions: 25 μM DHEA, 48 and 72 hours
# [7] = tested on: rat peritoneal mast cells; test: Compound 48/80-induced histamine release from rat peritoneal mast cells; assay type: cell-based
# Procedure: Following incubation, the mixture is cooled to 4° C. then centrifuged at 4500 rpm for 5 min. The supernatant is collected and mixed for 30 min at 4° C. with 5% TCA (trichloroacetic acid) to cause protein precipitation. After centrifugation at 9500×g for 15 min, the supernatant is collected and mixed with 0.25 M HCl. Thereafter, the samples are mixed with 2M NaOH and 0.2% OPT (ortho-phtalaldehyde).and incubated for 30 min at 4° C. in darkness, after which time the reaction is stopped by addition of 0.5 M H2SO4.
# The amount of secreted histamine is quantified by measuring the fluorescence intensity at λex=360 nm and λem=450 nm using a spectrofluorimeter (GeminiXS, Molecular Devices). The results are expressed as a percent inhibition of control histamine secretion.
# [8] = Physicochemical testing of DHEA-S dihydrate (BET surface area, Karl Fischer water, impurities)
# Procedure: (§1) Surface area is determined using five point BET analyses are performed with nitrogen as the adsorbing gas (P/Po=0.05 to 0.30) using a Micromeritics TriStar surface area analyzer. Particle size distributions are measured by laser diffraction using a Micromeritics Saturn Digisizer where the particles are suspended in mineral oil th sodium dioctyl sodium sulfosuccinate as a dispersing agent. Drug substance water content is measured by Karl Fischer titration (Schott Titroline KF). Pure water is used as the standard and all relative standard deviations for triplicates are less than 1%. Powder is added directly to the titration media.
# [9] = Solid-state stability with and without lactose (DHEA formed, HPLC); assay type: physicochemical
# Excerpt: These conditions were used to stress the formulation in order to predict its long-term stability results. […] This color change is accompanied by a significant change in the chromatogram as shown in. FIG. 1. The primary degradant is DHEA. […] The materials on accelerated storage become more cohesive with time as evidenced by clumping during sample weighing for chemical analysis. […] This is a considerable disadvantage since lactose is the most commonly used inhalation excipient for dry powder formulations. Continuing with the virtually anhydrous form would mean limiting formulations to neat powder or undertaking more comprehensive safety studies to use a novel excipient.
# [10] = Fine particle fraction, single-dose Acu-Breathe inhaler into Andersen impactor; assay type: physicochemical; conditions: neat micronized powder, 30 to 75 L/min, FIG. 1
# Procedure: These blisters are actuated into the Andersen 8-stage cascade impactor at flow rates ranging from 30 to 75 L/min with a glass twin-impinger throat. Stages 1-5 of the Andersen impactor are rinsed together to obtain an estimate of the fine particle fraction. Pooling the drug collected from multiple stages into one assay make the method much more sensitive. […] Using a carrier with a larger particle size typically improves the aerosol properties of micronized drug substances.
# Approximately 25 mg of this powder is filled and sealed in foil blisters and aerosolized using the single-dose device at 60 L/min. The aerosol results for this preliminary powder blend are satisfactory for a respiratory drug delivery system. […] This diameter is smaller than the median diameter measured for micronized DHEA-S.dihydrate by laser diffraction. Irregularly shaped particles can behave aerodynamically as smaller particles since their longest dimension tends to align with the air flow field. Therefore, it is common to see a difference between the two methods. Diffraction measurements are a quality control test for the input material while cascade impaction is a quality control test for the finished product.
# [11] = Particle size of DHEA-S powders (laser diffraction, light microscope); assay type: physicochemical
# Procedure: Approximately 1 g sample was passed through the jet mill, once, and approximately 2 g sample were passed through the jet mill twice. […] The resulting solution was sonicated for 3 minutes and appeared fully dispersed. The dispersed solutions were tested on a Malvern Mastersizer X with a small volume sampler (SVS) attachment. One sample of dispersed material was tested 5 times. The median particle size or D (v, 0.5) of unmilled material was 52.56 μm and the % RSD (relative standard deviation) was 7.61 for the 5 values. The D (v, 0.5) for a single pass through the jet mill was 3.90 μm and the % RSD was 1.27, and the D (v, 0.5) from a double pass through the jet mill 3.25 μm and the % RSD was 3.10.
# The solution was spray-dried with a B-191 Mini Spray-Drier (Buchi, Flawil, Switzerland) with an inlet temperature of 55° C., outlet temperature of 40° C., at 100% aspirator, at 10% pump, nitrogen flow at 40 mbar and spray flow at 600 units. The spray-dried product was suspended in hexane and Span85 surfactant added to reduce agglomeration. The dispersions were sonicated with cooling for 3-5 minutes for complete dispersion and the dispersed solutions tested on a Malvern Mastersizer X with a Small Volume Sampler (SVS) attachment. […] Visual examination by light microscope of the dispersions of each batch confirmed that spray drying produced small respirable size particles. The mean particle size was 2.4 μm and 2.0 μm for each batch, respectively.
# as §1
# [12] = rat, daily for two weeks, DHEA, high dose methyltestosterone
structure (smiles),measurement,setting,value
C[C@]12CCC(=O)C=C1CC[C@@H]1[C@@H]2CC[C@@]2(C)[C@H]1CC[C@]2(C)O [Methyltestosterone],"Intracellular adenosine, Liver","tissue adenosine; rat liver, methyltestosterone 120 mg/kg, mean ± SEM",5.1 ± 0.5 nmols/mg protein
same,depletion of adenosine in brain,tissue adenosine; [12],34%
same,depletion of adenosine in heart,tissue adenosine; [12],22%
same,"Intracellular adenosine, Liver","tissue adenosine; rat, in vivo",16.5 ± 0.9 nmols/mg protein
"CC(C)=CCC/C(C)=C/CC/C(C)=C/CC/C=C(\C)CC/C=C(\C)CCC=C(C)C [SQ, squalene]",reversal of DHEA-induced growth inhibition by supplement,HT-29 SF cells [1],no such effect
"C[C@]12CC[C@H](OS(=O)(=O)[O-])CC1=CC[C@@H]1[C@@H]2CC[C@]2(C)C(=O)CC[C@@H]12.[Na+] [DHEA-S, sodium dehydroepiandrostenone sulfate]",solubility in hexane,[2],insoluble
same,solubility,"[2]; 0.9% NaCl, refrigerated (7-8° C.)",1100 to 1300 µg/mL
same,Ksp,"[2]; 15° C., interpolated",~1316 mM^2
same,equilibrium constant Ksp,[2]; refrigerated (7-8° C.),665 mM^2
same,equilibrium constant Ksp,[2]; room temperature (24-25° C.),2236 mM^2
same,solubility,"[2]; ~25° C., 0% NaCl, excess DHEA-S dihydrate",16500 to 17400 µg/mL
same,solution stability of nebulizer formulation,"[3]; 7.5 mg/mL in 0.12% NaCl, RT",stable for at least one day at RT
same,appearance / decomposition on storage,[3]; 40° C.,became cloudy after two days of storage
same,appearance / decomposition on storage,[3]; RT (24-26° C.),slight precipitate is observed on the third day
"C[C@]12CC[C@H](O)CC1=CC[C@@H]1[C@@H]2CC[C@]2(C)C(=O)CC[C@@H]12 [DHEA, 3β-hydroxyandrost-5-en-17-one]",inhibition of growth,HT-29 SF cells [4],time- and dose-dependent inhibition of growth
same,cell cycle distribution,"HT-29 SF cells [5]; 200 μM DHEA, 24 hours",increase in the percentage of cells in G1 and a decreased proportion of cells in S phase
same,cell cycle block,"HT-29 SF cells [5]; 25-200 μM, 24-72 hours, FIG. 15",G1 block
same,cell cycle distribution,"HT-29 SF cells [5]; 25 or 50 μM DHEA, 72 hours",percentage of cells in G1 phase was increased
same,cell cycle distribution,"HT-29 SF cells [5]; 25 or 50 μM DHEA, initial 24 hours",unchanged
"CC(C)CCC[C@@H](C)[C@H]1CC[C@H]2[C@@H]3CC=C4C[C@@H](O)CC[C@]4(C)[C@H]3CC[C@]12C [CH, cholesterol]",prevention of DHEA-induced S phase depletion by supplement,HT-29 SF cells [6],very little effect at 48 hours and no effect at 72 hours
same,reversal of DHEA-induced growth inhibition by supplement,HT-29 SF cells [1],no such effect
"C[C@@](O)(CCO)CC(=O)O [MVA, mevalonic acid]",prevention of DHEA-induced S phase depletion by supplement,HT-29 SF cells [6],partially prevented this effect in the initial 48 hours but not after 72 hours
same,reversal of DHEA-induced growth inhibition by supplement,HT-29 SF cells [1],partially overcome
Nc1nc(=O)c2c([nH]1)NCC(CNc1ccc(C(=O)N[C@@H](CCC(=O)O)C(=O)O)cc1)N2C=O (mixture of isomers) [Folinic Acid],"Intracellular adenosine, Brain","tissue adenosine; rat brain, once daily 14 days, DHEA 300 mg/kg, methyltestosterone 40 mg/kg by gavage, folinic acid 50 mg/kg i.p., mean ± SEM",0.72 ± 0.09 nmols/mg protein
same,"Intracellular adenosine, Heart","tissue adenosine; rat heart, once daily 14 days, DHEA 300 mg/kg, methyltestosterone 40 mg/kg by gavage, folinic acid 50 mg/kg i.p., mean ± SEM",12.4 ± 2.1 nmols/mg protein
same,"Intracellular adenosine, Liver","tissue adenosine; rat liver, once daily 14 days, DHEA 300 mg/kg, methyltestosterone 40 mg/kg by gavage, folinic acid 50 mg/kg i.p., mean ± SEM",16.4 ± 2.4 nmols/mg protein
same,"adenosine levels, folinic acid administered alone","tissue adenosine; rat, 50 mg/kg i.p. 14 days",increase in adenosine levels for all organs studied
same,effect of coadministration of folinic acid on steroid-mediated adenosine depletion,"tissue adenosine; rat, with DHEA or methyltestosterone",completely abrogated
"CC(C)(C)NCC(O)c1ccc(O)c(CO)c1 (stereo not drawn) [Salbutamol, (α1-tert-butylaminomothyl)-4-hydroxy-m-xylene-α1,α3-diol]",inhibition at 1 pM,"[7]; Rattus norvegicus, Mast cell",-1%
same,inhibition at 10 pM,"[7]; Rattus norvegicus, Mast cell",7%
same,inhibition at 0.0001 µM,"[7]; Rattus norvegicus, Mast cell",2%
same,inhibition of compound 48/80-induced histamine release,"[7]; Salbutamol 1, 10 and 100 pM alone",no or trivial inhibition
CC12CCC3C(CC=C4CC(OS(=O)(=O)[O-])CCC43C)C1CCC2=O.[Na+] (centres unmarked) [DHEA-S dihydrate],Impurities,[8]; Bulk,No significant peaks
same,Water,[8]; Bulk,8.5 % w/w
same,Impurities,[8]; Micronized,No significant peaks
same,Surface area,[8]; Micronized,4.9 m^2/g
same,Water,[8]; Micronized,8.4 % w/w
same,DHEA % formed,"[9]; 50° C., 1 week",0.216%
same,DHEA % formed,"[9]; 50° C., 3 weeks",0.317%
same,DHEA % formed,"[9]; 50° C., 4 weeks",0.374%
same,DHEA % formed,"[9]; Control: neat, sealed vial, 25° C., 4 weeks",0.218%
same,DHEA % formed,"[9]; Control: neat, sealed vial, 25° C., first time column (head empty, time 0)",0.213%
same,"water content, starting value",[9]; before storage,8.8%
same,water content after accelerated storage,[9]; one week at 50° C.,8.66%
same,fine particle fraction as a function of flow rate,[10],higher fine particle fraction than the virtually anhydrous material
same,Particle size (D50%),"[11]; Bulk, before micronization",31 microns
same,Particle size (D50%),[11]; Micronized,3.7 microns
